Experimental data from publication PMC5925831, “Enhancement of the catalytic activity of Isopentenyl diphosphate isomerase (IDI) from Saccharomyces cerevisiae through random and site-directed mutagenesis” (Microbial Cell Factories, 2018).

How the values were obtained:
[1] = target: T1, IDI (isopentenyl diphosphate isomerase from Saccharomyces cerevisiae) (Saccharomyces cerevisiae, UniProt P15496); conditions: 50 mM MOPS, 20 mM MgCl2, 5% glycerol, pH 7.5, 30 °C (activity assay); substrate range printed as 1–1000 mmol/L
T1 construct: gene IDI1
T1 sequence (P15496 2-288): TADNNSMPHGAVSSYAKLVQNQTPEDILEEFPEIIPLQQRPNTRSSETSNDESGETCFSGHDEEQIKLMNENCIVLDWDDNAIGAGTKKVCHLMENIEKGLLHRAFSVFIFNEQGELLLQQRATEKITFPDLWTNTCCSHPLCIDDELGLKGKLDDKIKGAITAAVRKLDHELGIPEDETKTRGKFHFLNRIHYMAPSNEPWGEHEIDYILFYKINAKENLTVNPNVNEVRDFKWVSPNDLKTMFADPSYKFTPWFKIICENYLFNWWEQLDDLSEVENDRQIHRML
Text: (§1) GC of isoprene released from DMAPP by acid and heat; double-reciprocal plot on IDI (isopentenyl diphosphate isomerase from Saccharomyces cerevisiae)

[2] = target: T2, IDI (isopentenyl diphosphate isomerase from Saccharomyces cerevisiae) (Saccharomyces cerevisiae, UniProt P15496, Y195F/W256C, form not given); conditions: 50 mM MOPS, 20 mM MgCl2, 5% glycerol, pH 7.5, 30 °C (activity assay); substrate range printed as 1–1000 mmol/L
T2 construct: gene IDI1
T2 sequence (P15496 2-288 Y195F/W256C, form open): as the sequence (P15496 2-288) above, with Y194F, W255C counted along it
Text: as §1

- Km [1]: 41.5 ± 0.39 µM
- Km [2]: 37.6 ± 0.17 µM
Structure (SMILES): C=C(C)CCO[P@@](=O)(O)OP(=O)(O)O [isopentenylpyrophosphate]
